Measured values: patent US8829015B2 (Novartis AG, priority 2005, dated 2014)
Values joined by “and” are separate entries in the source; they are usually repeats but may differ in a detail not shown here. Equal entries are not always repeated. “Also recorded” adds a separate entry of the source. Structures can show the parent of a compound that is named as a salt. Each block holds one compound with its values, some of them ahead of it.

Tests used:
[1] = Equilibration of A-B mixtures of the hydrochloride salt in solvents; format: physicochemical
[2] = Form conversion on exposure to solvent vapor, air, moisture or room conditions; format: physicochemical
[3] = Stability studies on storage; format: physicochemical; settings: for form after storage: 1 month at 80° C. and 75% relative humidity; for form transition after storage: storage at various relative humidities
[4] = Intrinsic dissolution rate (rotating disk); format: physicochemical
Method: Intrinsic Dissolution Rate (IDR): Dissolution rate measurements were performed at 37° C. using the rotating disk method (VanKell Instrument). A single rotation speed of 200 rpm was used. For IDR in 0.1N HCl, an 800 mL volume, and for IDR in water, a 200 mL volume were used. The solution was continuously pumped through a UV measuring cell and recycled to the dissolution vessel.
The measurements were carried out on a VanKel instrument using a Cary 100 photometer.

[5] = Solubility by gravimetric techniques at different temperatures, residue by XRPD
[6] = Equilibration of hydrochloride forms A, B and C with solvents, XRPD; format: physicochemical
From the text: Then the solutions were filtered and the solid part investigated by XRPD.

physchem = settings: thermodynamic from solid
[7] = Equilibration of free base forms with solvents, XRPD; format: physicochemical; settings: seven solvents (ethanol absolute, methanol, tetrahydrofuran, water, tetrahydrofuran/water, ethanol/water, methanol/water 1:1), one day, 25° C.
From the text: The solid part was investigated by XRPD.

[8] = in the presence of methanol vapor
[9] = dissolution medium pH 2 (citrate buffer)
[10] = 0.0001N HCl, 25° C., after 24 hours
[11] = 0.001N HCl, 50° C., after 24 hours
[12] = 0.01N HCl, 25° C., after 24 hours
[13] = 0.1N HCl, 50° C., after 24 hours
[14] = Methanol, 50° C., after 24 hours
[15] = Methanol/Water (95/5) v/v, 20° C., 1 hour
[16] = Methanol/Water (95/5) v/v, 45° C., 1 hour
[17] = Methanol/Water (95/5) v/v, −10° C., 24 hours
[18] = Methanol/Water (99.5/0.5) v/v, 20° C., 10 minutes
[19] = Methanol/Water (99.5/0.5) v/v, 20° C., 1 hour
[20] = Methanol/Water (99.5/0.5) v/v, 45° C., 10 minutes
[21] = Methanol/Water (99.5/0.5) v/v, 45° C., 1 hour
[22] = Methanol/Water (99.5/0.5) v/v, 45° C., 24 hours
[23] = Methanol/Water (99.5/0.5) v/v, −10° C., 10 minutes
[24] = Methanol/Water (99.5/0.5) v/v, −10° C., 1 hour
[25] = dissolution medium HCl 0.0001 N
[26] = methanol/water (95/5) v/v, 20 °C, organic solvent or mixture
[27] = methanol/water (95/5) v/v, 45 °C, organic solvent or mixture
[28] = methanol/water (95/5) v/v, -10 °C, organic solvent or mixture
[29] = methanol/water (99.5/0.5) v/v, 20 °C, organic solvent or mixture
[30] = methanol/water (99.5/0.5) v/v, 45 °C, organic solvent or mixture
[31] = 0.001N HCl, 25° C., after 24 hours

Structure (SMILES): Cc1cn(-c2cc(NC(=O)c3ccc(C)c(Nc4nccc(-c5cccnc5)n4)c3)cc(C(F)(F)F)c2)cn1
Form after equilibration of A-B mixture ([1]; Methanol 0.25% water, 24 hours 40° C., ? = extra peak (unclear whether new form or free base)): B/? | Form after equilibration of A-B mixture ([1]; Methanol 10% water, significant enrichment in A after 12 hours): A/B

Structure (SMILES): Cc1cn(-c2cc(NC(=O)c3ccc(C)c(Nc4nccc(-c5cccnc5)n4)c3)cc(C(F)(F)F)c2)cn1 [Amorphous form of the hydrochloride salt]
form conversion [2, 8]: converts to form B | form after storage [3]: showed a mixture with form A | form transition after storage [3]: spontaneously crystallizes to form A; also recorded: spontaneously converts to the form A hydrochloride salt | Intrinsic Dissolution Rate value ([4]; dissolution medium HCl 0.1 N): 0.2508 mg/min/cm^2 | Intrinsic Dissolution Rate value [4, 9]: 0.0250 mg/min/cm^2

Structure (SMILES): Cc1cn(-c2cc(NC(=O)c3ccc(C)c(Nc4nccc(-c5cccnc5)n4)c3)cc(C(F)(F)F)c2)cn1 [Form A′ of the hydrochloride salt]
form conversion ([2]; under room conditions): converts within a few minutes under room conditions to form A

Structure (SMILES): Cc1cn(-c2cc(NC(=O)c3ccc(C)c(Nc4nccc(-c5cccnc5)n4)c3)cc(C(F)(F)F)c2)cn1 [Form C′ of the hydrochloride salt]
form conversion ([2]; under room conditions): converts within a few minutes under room conditions to a mixture of forms B and C

Structure (SMILES): Cc1cn(-c2cc(NC(=O)c3ccc(C)c(Nc4nccc(-c5cccnc5)n4)c3)cc(C(F)(F)F)c2)cn1 [Form SB of the hydrochloride salt]
form conversion ([2]; exposed to air): converts quickly to the monohydrate form B when exposed to air

Structure (SMILES): Cc1cn(-c2cc(NC(=O)c3ccc(C)c(Nc4nccc(-c5cccnc5)n4)c3)cc(C(F)(F)F)c2)cn1 [Form SC of the hydrochloride salt]
form conversion ([2]; exposed to air): converts quickly to the monohydrate form C when exposed to air

Second part, led by results:

Solubility [5, 10]: 0.45 mg/mL | Solubility [5, 11]: 0.79 mg/mL | Solubility [5, 12]: 0.43 mg/mL | Solubility [5, 13]: 2.46 mg/mL | XRPD (form of the solid) [5, 14]: C + B | Solubility [5, 15]: 28.18 mg/mL | XRPD (form of the solid) [5, 16]: A + B + C | Solubility [5, 17]: 4.74 mg/mL | XRPD (form of the solid) [5, 18]: A + B | XRPD (form of the solid) [5, 19]: A + B | XRPD (form of the solid) [5, 20]: A + B | XRPD (form of the solid) [5, 21]: C + B | XRPD (form of the solid) [5, 22]: C + B | Solubility [5, 23]: 24.01 mg/mL | Solubility [5, 24]: 26.37 mg/mL | Solubility ([5]; Water, 25° C., after 24 hours): 0.35 mg/mL | form conversion [2, 8]: converts to form B | form transition on equilibration ([6]; methanol, one day, 25° C.): transitioned to form B | form transition on equilibration ([6]; methanol/HCl 0.1N, 50° C., 1 day): transitioned to form C | form transition on equilibration ([6]; methanol/water (99:1), 50° C., 1 day): transitioned to form C | form transition on equilibration ([6]; methanol/water (99.3:0.7), 50° C., 1 day): transitioned to form C | form transition after storage [3]: No form transitions were observed | Intrinsic Dissolution Rate value [4, 25]: 0.0003 mg/min/cm^2 | Intrinsic Dissolution Rate value ([4]; dissolution medium HCl 0.001 N): 0.0089 mg/min/cm^2 | Intrinsic Dissolution Rate value ([4]; dissolution medium HCl 0.01 N): 0.0178 mg/min/cm^2 | Intrinsic Dissolution Rate value ([4]; dissolution medium Water): 0.0004 mg/min/cm^2 | Intrinsic Dissolution Rate value [4, 9]: 0.0076 mg/min/cm^2 | solubility at 24 h (physchem; 0.001N HCl, 25 °C, aqueous buffer): 0.92 mg/mL | solubility at 24 h (physchem; 0.01N HCl, 50 °C, simulated gastric fluid): 0.85 mg/mL | solubility at 24 h (physchem; 0.1N HCl, 25 °C, simulated gastric fluid): 1.32 mg/mL | solubility at 24 h (physchem; methanol, 25 °C, organic solvent or mixture): 13.8 mg/mL | solubility at 24 h (physchem; methanol, 50 °C, organic solvent or mixture): 52.5 mg/mL | solubility at 10 min (physchem; [26]): 25.7 mg/mL | solubility at 24 h (physchem; [26]): 13.1 mg/mL | solubility at 10 min (physchem; [27]): 46.1 mg/mL | solubility at 1 h (physchem; [27]): 61.1 mg/mL | solubility at 10 min (physchem; [28]): 12.3 mg/mL | solubility at 1 h (physchem; [28]): 14.4 mg/mL | solubility at 10 min (physchem; [29]): 33.7 mg/mL | solubility at 24 h (physchem; [29]): 12.2 mg/mL | solubility at 10 min (physchem; [30]): 52.2 mg/mL | solubility at 1 h (physchem; [30]): 62.5 mg/mL | solubility at 24 h (physchem; [30]): 41.9 mg/mL | solubility at 24 h (physchem; methanol/water (99.5/0.5) v/v, -10 °C, organic solvent or mixture): 4.96 mg/mL | solubility at 24 h (physchem; water, 50 °C): 1.03 mg/mL
Structure (SMILES): Cc1cn(-c2cc(NC(=O)c3ccc(C)c(Nc4nccc(-c5cccnc5)n4)c3)cc(C(F)(F)F)c2)cn1 [Form A of the hydrochloride salt]
form transition on equilibration ([6]; methanol, 50° C., 1 day): transitioned to a mixture of forms B and C | form transition on equilibration ([6]; methanol/HCl 0.1N, one day, 25° C.): transitioned to form B with a small amount of form C | form transition on equilibration ([6]; methanol/water (99:1), one day, 25° C.): transitioned to form C with a small amount of form B | form transition on equilibration ([6]; methanol/water (99.3:0.7), one day, 25° C.): transitioned to form B with a small amount of form C | Intrinsic Dissolution Rate value ([4]; dissolution medium HCl 0.1 N): 0.6778 mg/min/cm^2 and 1.2467 mg/min/cm^2

form conversion ([2]; exposed to moisture): converts back to the monohydrate
Structure (SMILES): Cc1cn(-c2cc(NC(=O)c3ccc(C)c(Nc4nccc(-c5cccnc5)n4)c3)cc(C(F)(F)F)c2)cn1 [Form B′ of the hydrochloride salt]
form conversion ([2]; under room conditions): converts within a few minutes under room conditions to form B

Solubility [5, 10]: 1.67 mg/mL | XRPD (form of the solid) [5, 10]: C + A | Solubility [5, 31]: 1.29 mg/mL | XRPD (form of the solid) [5, 31]: C + A | Solubility [5, 11]: 6.72 mg/mL | Solubility [5, 12]: 1.37 mg/mL | Solubility ([5]; 0.01N HCl, 50° C., after 24 hours): 1.69 mg/mL | Solubility ([5]; 0.1N HCl, 25° C., after 24 hours): 2.35 mg/mL | Solubility [5, 13]: 8.30 mg/mL | XRPD (form of the solid) [5, 13]: A+ | Solubility ([5]; Methanol, 25° C., after 24 hours): 18.20 mg/mL | Solubility [5, 14]: 55.26 mg/mL | Solubility ([5]; Methanol/Water (95/5) v/v, 20° C., 10 minutes): 18.88 mg/mL | Solubility [5, 15]: 13.03 mg/mL | Solubility ([5]; Methanol/Water (95/5) v/v, 20° C., 24 hours): 11.76 mg/mL | Solubility ([5]; Methanol/Water (95/5) v/v, 45° C., 10 minutes): 37.68 mg/mL | Solubility [5, 16]: 31.15 mg/mL | Solubility ([5]; Methanol/Water (95/5) v/v, 45° C., 24 hours): 32.26 mg/mL | Solubility ([5]; Methanol/Water (95/5) v/v, −10° C., 10 minutes): 9.73 mg/mL | Solubility ([5]; Methanol/Water (95/5) v/v, −10° C., 1 hour): 7.74 mg/mL | Solubility [5, 17]: 11.00 mg/mL | Solubility [5, 18]: 24.34 mg/mL | Solubility [5, 19]: 17.70 mg/mL | XRPD (form of the solid) [5, 19]: C + B | Solubility ([5]; Methanol/Water (99.5/0.5) v/v, 20° C., 24 hours): 12.09 mg/mL | Solubility [5, 20]: 39.86 mg/mL | Solubility [5, 21]: 46.15 mg/mL | Solubility [5, 22]: 45.59 mg/mL | XRPD (form of the solid) [5, 22]: C + B | Solubility [5, 23]: 11.91 mg/mL | Solubility [5, 24]: 7.99 mg/mL | Solubility ([5]; Methanol/Water (99.5/0.5) v/v, −10° C., 24 hours): 6.12 mg/mL | Solubility ([5]; Water, 25° C., after 24 hours): 1.47 mg/mL | XRPD (form of the solid) ([5]; Water, 25° C., after 24 hours): C + A | Solubility ([5]; Water, 50° C., after 24 hours): 1.31 mg/mL | form conversion [2, 8]: converts to form B | form transition on equilibration ([6]; methanol, 50° C., 1 day): transitioned to form B | form transition on equilibration ([6]; methanol, one day, 25° C.): transitioned to form B | form transition on equilibration ([6]; tetrahydrofuran, 50° C., 1 day): to a mixture of forms B and C | form transition on equilibration ([6]; water, 50° C., 1 day): transitioned to form A | form transition on equilibration ([6]; water, one day, 25° C.): transitioned to form A | form after storage [3]: showed a mixture with form A | form transition after storage [3]: No form transitions were observed | Intrinsic Dissolution Rate value [4, 25]: 0.0004 mg/min/cm^2 | Intrinsic Dissolution Rate value ([4]; dissolution medium HCl 0.001 N): 0.0057 mg/min/cm^2 | Intrinsic Dissolution Rate value ([4]; dissolution medium HCl 0.01 N): 0.0247 mg/min/cm^2 | Intrinsic Dissolution Rate value ([4]; dissolution medium Water): 0.000 mg/min/cm^2 | Intrinsic Dissolution Rate value [4, 9]: 0.0099 mg/min/cm^2
Structure (SMILES): Cc1cn(-c2cc(NC(=O)c3ccc(C)c(Nc4nccc(-c5cccnc5)n4)c3)cc(C(F)(F)F)c2)cn1 [Form C of the hydrochloride salt]
form transition on equilibration ([6]; ethanol/water (99:1), 50° C., 1 day): transitioned to a mixture of all three forms | Intrinsic Dissolution Rate value ([4]; dissolution medium HCl 0.1 N): 0.2323 mg/min/cm^2 and 0.3213 mg/min/cm^2

form transition on equilibration [7]: No form transitions occurred
Structure (SMILES): Cc1cn(-c2cc(NC(=O)c3ccc(C)c(Nc4nccc(-c5cccnc5)n4)c3)cc(C(F)(F)F)c2)cn1 [form A/form B (1:1)]
